We go through 1 compound from patent US6890361B2, “Modification of printed and dyed materials” (Novozymes North America, Inc., priority 2001, dated 2005).

One data set concerns cutinase. Conditions: Table 3. On the procedure: 5 mg/ml dye stock (suspension in 20 mM pH8 phosphate buffer) was made for each commercial dye. Since the absorbance of an opaque dye suspension cannot be detected by UV-vis spectrometer, these fives dyes were dissolved in acetone in the concentration of 50˜100 mg/L and the absorbance of each dye solution was measured as reference (see Table 1).
After 10 min. preheating in waterbath, each sample was dosed with 62.5 mg/L cutinase and incubated for 10 min. The samples were then taken out for UV-vis measurement.

Data set [1] is described as follows: UV-vis absorbance of disperse dyes dissolved in acetone (reference). It is filed as physicochemical. Conditions: dye concentration 50 mg/l.
A short description of data set [2]: Alkaline (NaOH) treatment of disperse dye suspension, UV-vis absorbance of solubilized dye. It is filed as physicochemical. To be noted: in water, [Dye] = 50 mg/L, Table 3. Also on record: key: #: Means absorbance was not detectable by UV-vis spectrometer due to the turbidity of the suspension. On the procedure: This procedure was repeated for the alkaline treatment at 80° C.

For `CCC(=O)Nc1cc(N(CCOC(C)=O)CCOC(C)=O)ccc1N=Nc1ccc([N+](=O)[O-])cc1Cl` [Disperse Red 167], the “effect of cutinase treatment on dye solubility (in words)” value in the data set with cutinase (cutinase treated) was “increase in dye solubility”. The “Cutinase Treated (70 C.) Abs@λ_max” value with cutinase (in water, [Dye] = 50 mg/L, λ_max 480 nm) worked out at 0.4249 AU. The compound also returned an Abs@λ max in data set [1] of 1.23. For the same compound, the “NaOH Treated (70 C.) Abs@λ_max” value in data set [2] (70 C.) is recorded as “#”. The “NaOH Treated (80 C.) Abs@λ_max” value in data set [2] (80 C.) is “#”.
